Measured values reported in US20240166624A1, “PPARG INVERSE AGONISTS AND USES THEREOF” (Flare Therapeutics Inc., priority 2021, published 2024).

What was measured:
[1] = biological target: T1, PPARG/RXRA LBD heterodimer (Homo sapiens, UniProt P37231); assay: PPARγ-MED1 blockade assay (TR-FRET, biotinylated MED1 LxxLL peptide); assay type: biochemical; settings: WT PPARG LBD/WT RXRA LBD, 80 nM Rosiglitazone, 3 hours
T1 construct: His-TEV-Q203-Y477; Uniprot ID P37231-2; made in house; host or cells: E. coli
T1 sequence (P37231 203-477 isoform P37231-2): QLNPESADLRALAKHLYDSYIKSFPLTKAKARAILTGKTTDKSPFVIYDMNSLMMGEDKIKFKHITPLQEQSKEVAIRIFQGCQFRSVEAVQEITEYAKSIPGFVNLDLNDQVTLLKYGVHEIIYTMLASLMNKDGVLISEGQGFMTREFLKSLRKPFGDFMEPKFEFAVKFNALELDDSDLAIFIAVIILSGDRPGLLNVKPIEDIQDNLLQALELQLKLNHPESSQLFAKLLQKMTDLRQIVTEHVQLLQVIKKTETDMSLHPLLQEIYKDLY
T1 sequence (P19793 228-462 partner limits assumed): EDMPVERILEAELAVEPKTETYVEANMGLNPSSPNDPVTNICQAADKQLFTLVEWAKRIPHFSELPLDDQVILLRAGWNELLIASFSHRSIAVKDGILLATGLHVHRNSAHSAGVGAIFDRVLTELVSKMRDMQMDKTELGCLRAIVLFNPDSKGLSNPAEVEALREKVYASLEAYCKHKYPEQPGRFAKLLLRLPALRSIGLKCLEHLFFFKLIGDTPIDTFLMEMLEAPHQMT
In short: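 TR-FRET measuring biotinylated MED1 LxxLL peptide association with 2 nM each His-PPARG LBD (Q203-Y477) and Flag-RXRA LBD (E228-T462), E. coli expressed. Read after 3 h incubation; ratios normalized to DMSO (0%) and GW9662 minimum (100%) for IC50 and maximal MED1 repulsion.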

[2] = biological target: T2, PPARG/RXRA LBD heterodimer (Homo sapiens, UniProt P37231); assay: PPARγ-NCOR1 recruitment assay (TR-FRET, biotinylated NCOR1 ID2 peptide); assay type: biochemical; settings: 80 nM Rosiglitazone, 3 hours, read-out: PPARG-NCOR recruitment assay EC50
T2 construct: His-TEV-Q203-Y477; Uniprot ID P37231-2; made in house; host or cells: E. coli
In short: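 2 nM each of E. coli-expressed PPARG LBD (Q203-Y477) and RXRA LBD (WT or S427F, E228-T462) with biotinylated NCOR1 ID2 peptide, incubated 3 h; TR-FRET read at Ex/Em 615/665. Ratios normalized to DMSO (0%) and T0070907 maximum (100%) for EC50 and maximal recruitment.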
T2 sequence (O75376 2251-2273 partner, one chain of several): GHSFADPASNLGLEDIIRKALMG

[3] = tested on: ANGPTL4, a PPARG target gene, in HT1197 (RXRA S427F mutation) cells; assay: Bladder cancer pharmacodynamic assay, HT1197 cell assay (qPCR of ANGPTL4); assay type: cell-based; settings: Homo sapiens, 24 hours, 100 nM compound, relative to DMSO control
In short: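 5637 (PPARG amplified) and HT1197 (RXRA S427F) cells treated 24 h with PPARG inverse agonists. FABP4 and ANGPTL4 expression measured by qPCR, normalised to TBP, and reported relative to DMSO control by ΔΔCt.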

SMILES	EC50 [1] [nM]	EC50 [2] [nM]	inhibition at 0.1 µM [3] [%]
CN(C)[C@@H]1CCN(c2c(F)cc3[nH]c(-c4cc(C#N)ccc4Cl)cc(=O)c3c2F)C1 [Example 109, (R)-4-chloro-3-(6-(3-(dimethylamino)pyrrolidin-1-yl)-5,7-difluoro-4-oxo-1,4-dihydroquinolin-2-yl)benzonitrile]	1000 to 10000	1000 to 10000	65
N#Cc1ccc(Cl)c(-c2cc(=O)c3c(F)c(-c4ccnc(CO)c4)c(F)cc3[nH]2)c1 [Example 71, 4-chloro-3-(5,7-difluoro-6-(2-(hydroxymethyl)pyridin-4-yl)-4-oxo-1,4-dihydroquinolin-2-yl)benzonitrile]	1000 to 10000	1000 to 10000	51
CN(C)C(=O)c1c(F)ccc(-c2c(F)cc3[nH]c(-c4cc(C#N)ccc4Cl)cc(=O)c3c2F)c1F [Example 83, 3-(2-(2-chloro-5-cyanophenyl)-5,7-difluoro-4-oxo-1,4-dihydroquinolin-6-yl)-2,6-difluoro-N,N-dimethylbenzamide]	100 to 1000	100 to 1000	76
CC(=O)N1CCC(c2c(F)cc3[nH]c(-c4cc(C#N)ccc4Cl)cc(=O)c3c2F)CC1 [Example 95, 3-(6-(1-acetylpiperidin-4-yl)-5,7-difluoro-4-oxo-1,4-dihydroquinolin-2-yl)-4-chlorobenzonitrile]	100 to 1000	100 to 1000	87
CNC(=O)Cc1ccc(-c2c(F)cc3[nH]c(-c4cc(C#N)ccc4Cl)cc(=O)c3c2F)cc1 [Example 80, 2-(4-(2-(2-chloro-5-cyanophenyl)-5,7-difluoro-4-oxo-1,4-dihydroquinolin-6-yl)phenyl)-N-methylacetamide]	100 to 1000	100 to 1000	47
N#Cc1ccc(Cl)c(-c2cc(=O)c3c(F)c(-c4ccc(C(F)F)cc4)c(F)cc3[nH]2)c1 [Example 36, 4-chloro-3-(6-(4-(difluoromethyl)phenyl)-5,7-difluoro-4-oxo-1,4-dihydroquinolin-2-yl)benzonitrile]	10 to 100	10 to 100	65
N#Cc1ccc(Cl)c(-c2cc(=O)c3c(F)c(-c4ccncc4F)c(F)cc3[nH]2)c1 [Example 49, 4-chloro-3-(5,7-difluoro-6-(3-fluoropyridin-4-yl)-4-oxo-1,4-dihydroquinolin-2-yl)benzonitrile]	100 to 1000	100 to 1000	52
N#Cc1ccc(Cl)c(-c2cc(=O)c3c(F)c(-c4ccc(C(F)(F)F)nc4)c(F)cc3[nH]2)c1 [Example 37, 4-chloro-3-(5,7-difluoro-4-oxo-6-(6-(trifluoromethyl)pyridin-3-yl)-1,4-dihydroquinolin-2-yl)benzonitrile]	100 to 1000	100 to 1000	87
CNC(=O)c1cccc(-c2c(F)cc3[nH]c(-c4cc(C#N)ccc4Cl)cc(=O)c3c2F)c1 [Example 78, 3-(2-(2-chloro-5-cyanophenyl)-5,7-difluoro-4-oxo-1,4-dihydroquinolin-6-yl)-N-methylbenzamide]	100 to 1000	100 to 1000	36
CN(C)C(=O)[C@H]1CCCN(c2c(F)cc3[nH]c(-c4cc(C#N)ccc4Cl)cc(=O)c3c2F)C1 [Example 115, (S)-1-(2-(2-chloro-5-cyanophenyl)-5,7-difluoro-4-oxo-1,4-dihydroquinolin-6-yl)-N,N-dimethylpiperidine-3-carboxamide]	1000 to 10000	100 to 1000	80
CC(C)(CO)n1cc(-c2c(F)cc3[nH]c(-c4cc(C#N)ccc4Cl)cc(=O)c3c2F)cn1 [Example 69, 4-chloro-3-(5,7-difluoro-6-(1-(1-hydroxy-2-methylpropan-2-yl)-1H-pyrazol-4-yl)-4-oxo-1,4-dihydroquinolin-2-yl)benzonitrile]	100 to 1000	100 to 1000	68
N#Cc1ccc(Cl)c(-c2cc(=O)c3c(F)c(-c4cnc(C(F)(F)F)nc4)c(F)cc3[nH]2)c1 [Example 50, 4-chloro-3-(5,7-difluoro-4-oxo-6-(2-(trifluoromethyl)pyrimidin-5-yl)-1,4-dihydroquinolin-2-yl)benzonitrile]	100 to 1000	100 to 1000	80
N#Cc1ccc(Cl)c(-c2cc(=O)c3c(F)c(-c4ccn(CC(O)CO)n4)c(F)cc3[nH]2)c1 (stereo not drawn) [Example 92, 4-chloro-3-(6-(1-(2,3-dihydroxypropyl)-1H-pyrazol-3-yl)-5,7-difluoro-4-oxo-1,4-dihydroquinolin-2-yl)benzonitrile]	100 to 1000	100 to 1000	24

Now from value to compound, other results behind:

EC50 [1] [nM]	EC50 [2] [nM]	SMILES	inhibition at 0.1 µM [3] [%]
100 to 1000	100 to 1000	CO[C@H]1CCN(c2c(F)cc3[nH]c(-c4cc(C#N)ccc4Cl)cc(=O)c3c2F)C1 [Example 104, (S)-4-chloro-3-(5,7-difluoro-6-(3-methoxypyrrolidin-1-yl)-4-oxo-1,4-dihydroquinolin-2-yl)benzonitrile]	78
100 to 1000	> 10000	Cc1c(F)cc(F)c2c(=O)cc(-c3cc(C#N)ccc3Cl)[nH]c12 [Example 28, 4-chloro-3-(5,7-difluoro-8-methyl-4-oxo-1,4-dihydroquinolin-2-yl)benzonitrile]	0
100 to 1000	100 to 1000	N#Cc1ccc(Cl)c(-c2cc(=O)c3c(F)c(-c4ccncc4)c(F)cc3[nH]2)c1 [Example 23, 4-chloro-3-(5,7-difluoro-4-oxo-6-(pyridin-4-yl)-1,4-dihydroquinolin-2-yl)benzonitrile]	55
100 to 1000	100 to 1000	Cc1cc(-c2c(F)cc3[nH]c(-c4cc(C#N)ccc4Cl)cc(=O)c3c2F)cc(C)n1 [Example 43, 4-chloro-3-(6-(2,6-dimethylpyridin-4-yl)-5,7-difluoro-4-oxo-1,4-dihydroquinolin-2-yl)benzonitrile]	75
100 to 1000	100 to 1000	N#Cc1ccc(Cl)c(-c2cc(=O)c3c(F)cc(Cl)cc3[nH]2)c1 [Example 16, 4-chloro-3-(7-chloro-5-fluoro-4-oxo-1,4-dihydroquinolin-2-yl)benzonitrile]	88
100 to 1000	100 to 1000	COCc1c(F)cc2[nH]c(-c3cc(C#N)ccc3Cl)cc(=O)c2c1F [Example 57, 4-chloro-3-(5,7-difluoro-6-(methoxymethyl)-4-oxo-1,4-dihydroquinolin-2-yl)benzonitrile]	87
1000 to 10000	1000 to 10000	CN1CCN(c2c(F)cc3[nH]c(-c4cc(C#N)ccc4Cl)cc(=O)c3c2F)CC1=O [Example 111, 4-chloro-3-(5,7-difluoro-6-(4-methyl-3-oxopiperazin-1-yl)-4-oxo-1,4-dihydroquinolin-2-yl)benzonitrile]	43
100 to 1000	100 to 1000	N#Cc1ccc(Cl)c(-c2cc(=O)c3c(F)c(-c4cc[nH]n4)c(F)cc3[nH]2)c1 [Example 97, 4-chloro-3-(5,7-difluoro-4-oxo-6-(1H-pyrazol-3-yl)-1,4-dihydroquinolin-2-yl)benzonitrile]	52
1000 to 10000	1000 to 10000	CN(C)C(=O)CCc1c(F)cc2[nH]c(-c3cc(C#N)ccc3Cl)cc(=O)c2c1F [Example 84, 3-(2-(2-chloro-5-cyanophenyl)-5,7-difluoro-4-oxo-1,4-dihydroquinolin-6-yl)-N,N-dimethylpropanamide]	67
1000 to 10000	1000 to 10000	N#Cc1ccc(Cl)c(-c2cc(=O)c3c(F)c(F)c(F)cc3[nH]2)c1 [Example 17, 4-chloro-3-(5,6,7-trifluoro-4-oxo-1,4-dihydroquinolin-2-yl)benzonitrile]	66
100 to 1000	100 to 1000	N#Cc1ccc(Cl)c(-c2cc(=O)c3c(F)c(N4CCOCC4)c(F)cc3[nH]2)c1 [Example 107, 4-chloro-3-(5,7-difluoro-6-morpholino-4-oxo-1,4-dihydroquinolin-2-yl)benzonitrile]	80
